# From article PMC11492034, “The MRGPRX2-substance P pathway regulates mast cell migration” (iScience, 2024)
# Legend:
# [1] = system: MC progenitors; details: LTB4: ref 38, 40, 42; PGE2: no ref at this clause; cited from earlier work
# [2] = system: asthmatic subjects; details: cited from earlier work
# [3] = system: neurokinin 1 receptor; details: 100 nM aprepitant, SP 0.03-10, immature mast cells, n=1
# Experimental: Chemotaxis assays were carried out using 8 μm pore ChemoTX™ assay plates (Neuroprobe, Gaithersburg, USA). Cells were first loaded with 5 μM Calcein-AM for 30 mins, 37°C/5% CO2 in cell culture medium prior to being washed and resuspended at a concentration of 1 x 10^6.ml^-1. Where appropriate cells were pre-incubated with Compound A or vehicle control. Chemoattractants were prepared in cell culture medium and placed in the lower chamber. The plate was constructed and 50 μl cell suspension applied to the upper part of the membrane of each well. No chemoattractant and equal chemoattractant on both sides of the chamber were used to control for random cell movement. The plate was incubated for 6 hours 37°C/5% CO2 before analysis of migrated cells, as follows. Cells were removed from above the membrane by pipetting, the membrane was then washed with PBS buffer containing 2mM EDTA and wiped using a rubber filter wiper (Neuroprobe). PBS/EDTA was applied to the upper side of the membrane and the plate incubated for 30 mins at 4°C before again being wiped. The plate was then centrifuged at 500 x g for 5 mins to capture cells attached to the underside of the membrane. […] Total migrated cells were counted as Live/Dead™-/Calcein-AM+/CD117+ cells or Live/Dead™-/Calcein-AM+ cells in each sample. […]
# [4] = molecular target: T1, MRGPRX2 (Homo sapiens, UniProt Q96LB1); details: 15 min; 1 µM (PACAP1-38, PACAP1-27, PAMP9-20, VIP) or 10 µM (CGRP); concentration response 0.01-100 µM, n=1 of a mix of 2 donors
# T1 sequence (Q96LB1 whole entry): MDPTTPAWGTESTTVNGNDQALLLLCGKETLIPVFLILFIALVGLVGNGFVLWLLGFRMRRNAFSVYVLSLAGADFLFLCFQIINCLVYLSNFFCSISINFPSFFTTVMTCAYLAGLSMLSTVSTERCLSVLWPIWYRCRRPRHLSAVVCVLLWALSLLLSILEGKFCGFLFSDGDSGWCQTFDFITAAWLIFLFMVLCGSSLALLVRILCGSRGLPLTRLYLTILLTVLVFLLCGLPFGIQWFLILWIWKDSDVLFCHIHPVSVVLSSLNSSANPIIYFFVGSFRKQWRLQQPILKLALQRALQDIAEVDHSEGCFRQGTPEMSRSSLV
# Experimental: Degranulation was assessed by labelling of externalised CD63 (clone H5C6) as previously established[3] in response to substance P (Genscript, Oxford, UK), IgE/anti-IgE, anti-FcεRIα (clone AER37, Biolegend, London, UK) or C3a (CompTech, Tyler, USA). In all cases, cells were washed in PBS prior to incubation with live/dead™ reagent before analysis. […] Fc blocking reagent and antibodies were added, diluted in 1x permeabilisation buffer (BD Bioscience, Winnersh, UK), cells were washed and incubated with goat anti-mouse polyclonal antibodies labelled with PE or APC (Biolegend, London, UK). All cells were analysed on FACSymphony A5 or LSRFostessa instruments, and FlowJo software (BD Bioscience, Winnersh, UK). CD63 externalisation was used as a surrogate for MC degranulation according to established methodology.[52]^,[53]^,[54]
# Putative MRGPRX2 ligand activation of MRGPRX2 positive cells.
# (A) Gating showing degranulation, as measured by CD63 externalisation (x-axis), vs MRGPRX2 expression (y-
# axis) after 15 mins of treatment with labelled agonists at 1µM (PACAP1-38, PACAP1-27, PAMP9-20, VIP) or
# Percentage of cells in each quadrant is shown.
# (B) Degranulation of mast cells in response to agonists (0.01-100 µM) after 15 minutes of application, as
# shown. Data are n=1 of a mix of 2 donors.
# [5] = molecular target: T1, MRGPRX2; details: cited from earlier work
compound,measurement,setting,value
CCCCC/C=C\C[C@@H](O)/C=C/C=C/C=C\[C@@H](O)CCCC(=O)O [LTB4],effect on MC migration,[1],"known to attract MC progenitors, recruiting them from the circulation, and lose its effect upon MC maturation"
CCCCC[C@H](O)/C=C/[C@H]1[C@H](O)CC(=O)[C@@H]1C/C=C\CCCC(=O)O [PGE2],effect on MC migration,[1],more prone to regulating cell movement within the tissue
CSCC[C@H](NC(=O)[C@H](CC(C)C)NC(=O)CNC(=O)[C@H](Cc1ccccc1)NC(=O)[C@H](Cc1ccccc1)NC(=O)[C@H](CCC(N)=O)NC(=O)[C@H](CCC(N)=O)NC(=O)[C@@H]1CCCN1C(=O)[C@H](CCCCN)NC(=O)[C@@H]1CCCN1C(=O)[C@@H](N)CCCN=C(N)N)C(N)=O [SP],bronchoconstriction in asthmatic subjects,[2],does not induce bronchoconstriction
C[C@@H](O[C@H]1OCCN(Cc2n[nH]c(=O)[nH]2)[C@H]1c1ccc(F)cc1)c1cc(C(F)(F)F)cc(C(F)(F)F)c1 [aprepitant],inhibition of SP-induced chemotaxis,[3],did not
CGRP,"CD63 degranulation, neuropeptide",[4],minimal effect
LL-37,binding to MRGPRX2,[5],binds
PAMP-20,binding to MRGPRX2,[5],binds
cortistatin-14,binding to MRGPRX2,[5],binds
